Entries after “also recorded” stand apart in the source; their conditions may differ.

One data set concerns Female Wistar rats. The conditions noted are these: neuroleptic alone; olanzapine 8 mg/kg sc, clozapine 8 mg/kg sc, haloperidol 4 mg/kg ip; oral glucose load 2 g/kg; FIG. 1A.
The conditions of data set [1]: metformin on its own, in the diabetic; cited from earlier work.

Experimental for Female Wistar rats: Female Wistar rats (weight range 250-300 g upon arrival) are obtained from Janvier (Le Genest Saint Isle-France, France) and housed in pairs or three together at a temperature of 21±4° C. and 55±20% humidity. The animals are maintained on a reverse phase light-dark cycle (lights off for 8 h from 09.30-17.30 h) during which time the room is illuminated by red light. The animals are housed and have free access to a fat diet and tap water until the night before the oral glucose tolerance test (OGTT) experiment.
An oral glucose tolerance test is performed in overnight fasted animals. A pre-dose blood sample (t0-90 min) is obtained by tail bleed. Blood glucose is measured with a glucometer, and the animals are randomized for blood glucose (n=8/group). Subsequently, the groups receive a single oral administration of either vehicle or a neuroleptic agent in the presence or absence of an SGLT-2 inhibitor. The animals receive an oral glucose load (2 g/kg) 60 min after compound administration. Blood glucose is measured in tail blood 15 min, 30 min, 60 min, 120 min, and 180 min after the glucose challenge. Glucose excursion is quantified by calculating the reactive glucose AUC. The data are presented as mean±SEM.

`CN1CCN(C2=Nc3cc(Cl)ccc3Nc3ccccc32)CC1` [Clozapine, 8-chloro-11-(4-methylpiperazin-1-yl)-5H-dibenzo[b,e][1,4]diazepine]: the “glucose tolerance in OGTT” value in the data set with Female Wistar rats is reported as “impaired glucose tolerance”.

For `CN(C)C(=N)N=C(N)N` [metformin], the “average improvement in the HbA1c value” in data set [1] was 1.0-1.5%. `O=C(CCCN1CCC(O)(c2ccc(Cl)cc2)CC1)c1ccc(F)cc1` [haloperidol, 4-[4-(4-chlorophenyl)-4-hydroxy-1-piperidyl]-1-(4-fluorophenyl)-butan-1-one]: the “glucose tolerance in OGTT” value with Female Wistar rats is listed as “impaired glucose tolerance; also recorded: worsening of the OGTT was less pronounced”.
